In PMC12723449, “From Pharmacophore to Warhead: NAD^+‐Targeting Triazoles as Mechanism‐Based Sirtuin Inhibitors” (Angewandte Chemie (International Ed. in English), 2025):
pKi: −log10 of the molar value.

Experiments:
[1] = biological target: T1, SIRT2 (Homo sapiens, UniProt Q8IXJ6); assay: Kinetic analysis via continuous enzyme demyristoylation inhibition assay; type: biochemical; settings: myristoylated substrate, two-step inhibition model; read-out: K I app
T1 construct: For assay experiments, strep-tagged human SIRT1134−747 and SIRT256-356 were expressed and purified as previously; Strep-tag; made in house; host or cells: E. coli BL21 Star (DE3)
T1 sequence (Q8IXJ6 56-356 limits assumed): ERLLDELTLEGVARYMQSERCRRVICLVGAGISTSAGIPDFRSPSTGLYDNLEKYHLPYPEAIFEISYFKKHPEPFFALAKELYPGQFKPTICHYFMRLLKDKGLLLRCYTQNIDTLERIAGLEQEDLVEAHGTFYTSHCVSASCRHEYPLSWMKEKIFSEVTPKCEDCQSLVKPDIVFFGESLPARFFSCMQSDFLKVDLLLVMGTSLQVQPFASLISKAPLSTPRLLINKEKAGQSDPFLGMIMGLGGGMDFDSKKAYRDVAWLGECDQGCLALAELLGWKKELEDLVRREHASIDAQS
Method: solution was diluted 100-fold to a total volume of 40 µL with substrate (final concentration of 40 nM), NAD+ (final concentration of 500 µM) and DMSO (final concentration of 5 % (v/v)) and transferred to a black 384-well microplate (Optiplate 384 F, PerkinElmer). For NAD+ preincubation, 0.1 µL of inhibitor solution (40× IC50, […] after jump dilution), 0.1 µL of SIRT2 (400 nM, final concentration of 1 nM after jump dilution) and 0.2 µL of NAD+ ([…] concentration of 500 µM after jump dilution) were preincubated for 30 min. […] The change in fluorescence was monitored with a microplate reader (λEx = 485 nm, λEm = 530-10 nm, BMG POLARstar Optima, BMG Labtech, Germany) every 30 s for 20 min. […] Reaction rates were obtained from the slope of the fluorescence signal over time and converted to product concentration using calibration curves, assuming equal fluorescence intensities for substrate and product, as […]
Ft = time-dependent signal resulting from product formation (in µM, calculated from AU values), F0 = Y-intercept = background signal at reaction initiation (in µM, calculated from AU values), vi = initial product formation velocity (in µM/min), vs = final/steady-state product formation velocity (in µM/min), t = incubation time after enzyme addition (in min), kobs = observed rate of time-dependent inhibition from initial vi to final vs (in min-1). […]

[2] = biological target: T2, HEK293T cells overexpressing a NanoLuc–SIRT2 fusion protein (Homo sapiens, UniProt Q8IXJ6); assay: CE-ESI-MS analysis of adducts formed in cellulo; type: cell-based; settings: 20 µM, 3 h
T2 construct: transfected HEK293T cells expressing the NanoLuc-tagged SIRT250-356 fusion protein were used instead of transient; expressed in transfected cells; host or cells: HEK293T (stably transfected)
T2 sequence (Q8IXJ6 50-356 limits assumed): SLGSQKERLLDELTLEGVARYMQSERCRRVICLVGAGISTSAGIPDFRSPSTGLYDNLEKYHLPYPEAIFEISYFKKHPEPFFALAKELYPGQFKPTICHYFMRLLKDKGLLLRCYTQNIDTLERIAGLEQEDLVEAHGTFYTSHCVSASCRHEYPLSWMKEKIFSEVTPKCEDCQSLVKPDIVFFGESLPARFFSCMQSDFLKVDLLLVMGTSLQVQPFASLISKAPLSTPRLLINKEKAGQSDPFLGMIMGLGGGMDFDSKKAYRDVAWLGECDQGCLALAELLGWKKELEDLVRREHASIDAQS

SMILES | pKi [1] | ADPR adduct formation in cells by CE-ESI-MS/MS [2]
CCCCCCCCCCCCc1cn(CCCC[C@H](NC(=O)[C@H](CCCCN)NC(=O)[C@@H]2CCCN2C(=O)[C@H](CC(C)C)NC(=O)[C@H](C)NC(=O)[C@H](CCC(=O)O)NC(C)=O)C(=O)N[C@H](C(=O)NCC(=O)NCC(N)=O)[C@@H](C)O)nn1 [Compound 6] | 4.61 | –
Cc1cc(C)nc(SCC(=O)Nc2ncc(Cc3cccc(OCc4c[nH]nn4)c3)s2)n1 [Compound 7] | – | confirmed formation of 7–ADPR in cellulo
